Tests used:
DDR1 = target: T1, DDR1 (Homo sapiens, UniProt Q08345); assay: LanthaScreen Europium Kinase Binding assay, DDR1; settings: 5 nM DDR1, 20 nM Kinase Tracer 178, 1 h at rt; Ki from IC50 by Cheng-Prusoff; read-out: Ki DDR1
T1 construct: purchased Carna Biosciences
Protocol: (§1) DDR1 and DDR2 binding assays were performed using Life Technologies LanthaScreen™ Europium Kinase Binding assay. […] IC50 values were determined in GraphPad Prism 7.0 software, using 4 parameter model: log (inhibitor) vs. response. IC50 values were converted in Ki using the Cheng-Prusoff equation (Ki-IC50/(1+ [Tracer]/Kd).

DDR2 = target: T2, DDR2 (Homo sapiens, UniProt Q16832); assay: LanthaScreen Europium Kinase Binding assay, DDR2; settings: 5 nM DDR2, 10 nM Kinase Tracer 178, 1 h at rt; Ki from IC50 by Cheng-Prusoff; read-out: Ki DDR2
T2 construct: purchased Life Technologies
T2 sequence (Q16832 22-855): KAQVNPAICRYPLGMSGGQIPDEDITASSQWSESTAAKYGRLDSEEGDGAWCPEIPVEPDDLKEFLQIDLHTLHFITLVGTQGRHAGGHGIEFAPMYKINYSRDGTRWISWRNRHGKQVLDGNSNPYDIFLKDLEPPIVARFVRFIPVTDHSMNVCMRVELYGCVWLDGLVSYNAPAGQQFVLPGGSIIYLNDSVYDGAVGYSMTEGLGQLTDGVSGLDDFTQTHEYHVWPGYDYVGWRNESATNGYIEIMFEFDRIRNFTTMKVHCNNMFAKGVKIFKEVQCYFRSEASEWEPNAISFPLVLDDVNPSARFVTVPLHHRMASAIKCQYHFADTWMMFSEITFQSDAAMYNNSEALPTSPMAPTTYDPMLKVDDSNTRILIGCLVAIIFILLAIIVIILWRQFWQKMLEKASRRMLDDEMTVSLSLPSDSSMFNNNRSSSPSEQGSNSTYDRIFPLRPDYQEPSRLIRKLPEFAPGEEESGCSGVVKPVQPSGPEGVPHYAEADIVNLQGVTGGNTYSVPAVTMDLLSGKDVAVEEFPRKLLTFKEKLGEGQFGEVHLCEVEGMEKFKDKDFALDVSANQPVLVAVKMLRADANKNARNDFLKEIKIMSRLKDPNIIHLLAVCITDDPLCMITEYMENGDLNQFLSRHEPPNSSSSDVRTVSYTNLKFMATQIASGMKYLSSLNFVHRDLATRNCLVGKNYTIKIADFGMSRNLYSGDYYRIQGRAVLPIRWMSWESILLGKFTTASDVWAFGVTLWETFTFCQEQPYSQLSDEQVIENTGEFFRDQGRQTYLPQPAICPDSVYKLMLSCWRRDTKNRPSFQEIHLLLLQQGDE
Protocol: as §1

T1 sequence (Q08345 19-913): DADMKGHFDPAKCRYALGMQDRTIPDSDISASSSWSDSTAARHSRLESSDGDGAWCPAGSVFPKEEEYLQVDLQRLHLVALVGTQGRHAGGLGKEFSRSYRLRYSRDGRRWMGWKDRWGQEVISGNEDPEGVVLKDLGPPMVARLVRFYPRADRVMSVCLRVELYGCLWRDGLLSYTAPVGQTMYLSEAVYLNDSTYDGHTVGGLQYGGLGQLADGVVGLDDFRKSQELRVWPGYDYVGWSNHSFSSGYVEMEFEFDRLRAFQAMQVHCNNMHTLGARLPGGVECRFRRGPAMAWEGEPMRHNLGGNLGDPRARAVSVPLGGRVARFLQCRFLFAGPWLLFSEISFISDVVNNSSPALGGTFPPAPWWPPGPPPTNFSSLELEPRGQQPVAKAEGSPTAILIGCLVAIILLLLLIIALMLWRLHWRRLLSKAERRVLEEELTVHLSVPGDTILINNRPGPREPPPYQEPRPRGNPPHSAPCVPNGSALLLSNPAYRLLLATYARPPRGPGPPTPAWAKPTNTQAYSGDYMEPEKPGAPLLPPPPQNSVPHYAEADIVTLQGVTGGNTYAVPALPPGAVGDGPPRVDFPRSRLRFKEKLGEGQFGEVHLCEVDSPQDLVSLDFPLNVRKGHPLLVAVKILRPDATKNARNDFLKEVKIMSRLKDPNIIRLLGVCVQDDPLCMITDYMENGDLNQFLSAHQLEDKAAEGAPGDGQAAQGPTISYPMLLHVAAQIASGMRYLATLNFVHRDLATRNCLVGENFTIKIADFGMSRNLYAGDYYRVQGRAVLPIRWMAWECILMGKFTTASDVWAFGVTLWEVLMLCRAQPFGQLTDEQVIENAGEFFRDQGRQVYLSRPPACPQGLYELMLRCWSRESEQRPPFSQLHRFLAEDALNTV

## Cn1ccn2ncc(C(=O)N3CC4(CC(CC(=O)Nc5cc(C(F)(F)F)ccn5)C4)C3)c12 [Example 279, 2-(2-(1-methyl-1H-imidazo[1,2-b]pyrazole-7-carbonyl)-2-azaspiro[3.3]hepan-6-yl)-N-(4-(trifluoromethyl)pyridin-2-yl)acetamide]
DDR1
  Ki: < 5 nM
DDR2
  Ki: < 5 nM

## Cn1cc(C(F)(F)F)cc(NC(=O)NC2CC3(C2)CN(C(=O)c2cnn4ccsc24)C3)c1=O [Example 58, 1-(1-methyl-2-oxo-5-(trifluoromethyl)-1,2-dihydropyridin-3-yl)-3-(2-(pyrazolo[5,1-b]thiazole-7-carbonyl)-2-azaspiro[3.3]heptan-6-yl)urea]
DDR1
  Ki: < 5 nM
DDR2
  Ki: 5 to 25 nM

## Cc1ccc(C(F)(F)F)cc1NC(=O)OC1CC2(C1)CN(C(=O)c1cnn3ccn(C)c13)C2 [Example 270, 2-(1-methyl-1H-imidazo[1,2-b]pyrazole-7-carbonyl)-2-azaspiro[3.3]heptan-6-yl(2-methyl-5-(trifluoromethyl)phenyl)carbamate]
DDR1
  Ki: < 5 nM
DDR2
  Ki: < 5 nM

## COc1c(CO)cc(C(F)(F)F)cc1NC(=O)NC1CC2(C1)CN(c1cnc3[nH]ncc3c1)C2 [Example 312, 1-(2-(1H-pyrazolo[3,4-b]pyridin-5-yl)-2-azaspiro[3.3]heptan-6-yl)-3-(3-(hydroxymethyl)-2-methoxy-5-(trifluoromethyl)phenyl)urea]
DDR1
  Ki: < 5 nM
DDR2
  Ki: 5 to 25 nM

## CN(C(=O)Nc1cncc(C(F)(F)C(F)(F)F)c1)C1CC2(C1)CN(C(=O)c1cnn3ccn(C)c13)C2 [Example 266, 1-methyl-1-(2-(1-methyl-1H-imidazo[1,2-b]pyrazole-7-carbonyl)-2-azaspiro[3.3]heptan-6-yl)-3-(5-(perfluoroethyl)pyridin-3-yl)urea]
DDR1
  Ki: < 5 nM
DDR2
  Ki: 5 to 25 nM

## O=C(Nc1cncc(C(F)(F)F)c1)NC1CC2(C1)CN(C(=O)c1ccnc3[nH]ncc13)C2 [Example 159, 1-(2-(1H-pyrazolo[3,4-b]pyridine-4-carbonyl)-2-azaspiro[3.3]heptan-6-yl)-3-(5-(trifluoromethyl)pyridin-3-yl)urea]
DDR1
  Ki: < 5 nM
DDR2
  Ki: 5 to 25 nM

## O=C(CC1CC2(C1)CN(C(=O)c1cnn3ccn(C(F)F)c13)C2)Nc1cc(OC(F)(F)F)ccn1 [Example 302, 2-(2-(1-(difluoromethyl)-1H-imidazo[1,2-b]pyrazole-7-carbonyl)-2-azaspiro[3.3]heptan-6-yl)-N-(4-(trifluoromethoxy)pyridin-2-yl)acetamide]
DDR1
  Ki: < 5 nM
DDR2
  Ki: < 5 nM

## Cc1cc2ncnc(C(=O)N3CC4(CC(NC(=O)Nc5cccc(C(F)(F)F)c5)C4)C3)c2s1 [Example 99, 1-(2-(6-methylthieno[3,2-d]pyrimidine-4-carbonyl)-2-azaspiro[3.3]heptan-6-yl)-3-(3-(trifluoromethyl)phenyl)urea]
DDR1
  Ki: < 5 nM
DDR2
  Ki: < 5 nM

## COc1ccc(CC(F)(F)F)cc1NC(=O)NC1CC2(C1)CN(C(=O)c1cnn3ccn(C)c13)C2 [Example 152, 1-(2-methoxy-5-(2,2,2-trifluoroethyl)phenyl)-3-(2-(1-methyl-1H-imidazo[1,2-b]pyrazole-7-carbonyl)-2-azaspiro[3.3]heptan-6-yl)urea]
DDR1
  Ki: < 5 nM
DDR2
  Ki: 5 to 25 nM

## COc1ccc(OC(F)(F)F)cc1NC(=O)CC1CC2(C1)CN(C(=O)c1cnn3ccn(C)c13)C2 [Example 142, N-(2-methoxy-5-(trifluoromethoxy)phenyl)-2-(2-(1-methyl-1H-imidazo[1,2-b]pyrazole-7-carbonyl)-2-azaspiro[3.3]heptan-6-yl)acetamide]
DDR1
  Ki: < 5 nM
DDR2
  Ki: < 5 nM

## CN(C(=O)Nc1cncc(C(F)(F)F)c1)C1CC2(C1)CN(C(=O)c1cnn3ccccc13)C2 [Example 216, 1-methyl-1-(2-(pyrazolo[1,5-a]pyridine-3-carbonyl)-2-azaspiro[3.3]heptan-6-yl)-3-(5-(trifluoromethyl)pyridin-3-yl)urea]
DDR1
  Ki: < 5 nM
DDR2
  Ki: 25 to 100 nM

## CN(C(=O)Nc1cc(C(F)(F)F)cnn1)C1CC2(C1)CN(C(=O)c1cnn3ccccc13)C2 [Example 259, 1-methyl-1-(2-(pyrazolo[1,5-a]pyridine-3-carbonyl)-2-azaspiro[3.3]heptan-6-yl)-3-(5-(trifluoromethyl)pyridazin-3-yl)urea]
DDR1
  Ki: < 5 nM
DDR2
  Ki: 25 to 100 nM

## CN(C(=O)Nc1cc(OC(F)(F)F)ccn1)C1CC2(C1)CN(C(=O)c1ncnc3[nH]ccc13)C2 [Example 205, 1-(2-(7H-pyrrolo[2,3-d]pyrimidine-4-carbonyl)-2-azaspiro[3.3]heptan-6-yl)-1-methyl-3-(4-(trifluoromethoxy)pyridin-2-yl)urea]
DDR1
  Ki: < 5 nM
DDR2
  Ki: 5 to 25 nM

## Cc1ccc(OC(F)(F)F)cc1NC(=O)N(C)C1CC2(C1)CN(C(=O)c1ncnc3[nH]ccc13)C2 [Example 201, 1-(2-(7H-pyrrolo[2,3-d]pyrimidine-4-carbonyl)-2-azaspiro[3.3]heptan-6-yl)-1-methyl-3-(2-methyl-5-(trifluoromethoxy)phenyl)urea]
DDR1
  Ki: < 5 nM
DDR2
  Ki: 5 to 25 nM

## CN(C(=O)Nc1cccc(CC(F)(F)F)c1)C1CC2(C1)CN(C(=O)c1cnn3ccn(C)c13)C2 [Example 50, 1-methyl-1-(2-(1-methyl-1H-imidazo[1,2-b]pyrazole-7-carbonyl)-2-azaspiro[3.3]heptan-6-yl)-3-(3-(2,2,2-trifluoroethyl)phenyl)urea]
DDR1
  Ki: < 5 nM
DDR2
  Ki: 5 to 25 nM

## CN(C(=O)Nc1cc(C2CC2)ccn1)C1CC2(C1)CN(C(=O)c1cnn3ccn(C)c13)C2 [Example 156, 3-(4-cyclopropylpyridin-2-yl)-1-methyl-1-(2-(1-methyl-1H-imidazo[1,2-b]pyrazole-7-carbonyl)-2-azaspiro[3.3]heptan-6-yl)urea]
DDR1
  Ki: < 5 nM
DDR2
  Ki: 5 to 25 nM

## CN(C(=O)Nc1cc(CC(F)(F)F)ccn1)C1CC2(C1)CN(C(=O)c1cnn3ccn(C)c13)C2 [Example 150, 1-methyl-1-(2-(1-methyl-1H-imidazo[1,2-b]pyrazole-7-carbonyl)-2-azaspiro[3.3]heptan-6-yl)-3-(4-(2,2,2-trifluoroethyl)pyridin-2-yl)urea]
DDR1
  Ki: < 5 nM
DDR2
  Ki: 5 to 25 nM

## O=C(Nc1cc(C(F)F)ccn1)NC1CC2(C1)CN(C(=O)c1ncnc3ccsc13)C2 [Example 74, 1-(4-(difluoromethyl)pyridin-2-yl)-3-(2-(thieno[3,2-d]pyrimidine-4-carbonyl)-2-azaspiro[3.3]heptan-6-yl)urea]
DDR1
  Ki: < 5 nM
DDR2
  Ki: < 5 nM

## O=C(CC1CC2(C1)CN(C(=O)c1ccnc3ccsc13)C2)Nc1cccc(C(F)(F)F)c1 [Example 140, 2-(2-(thieno[3,2-b]pyridine-7-carbonyl)-2-azaspiro[3.3]heptan-6-yl)-N-(3-(trifluoromethyl)phenyl)acetamide]
DDR1
  Ki: < 5 nM
DDR2
  Ki: < 5 nM

## CN(C(=O)Nc1cncc(C(F)(F)F)c1)C1CC2(C1)CN(C(=O)c1cnn3cc(-c4cnn(C)c4)ccc13)C2 [Example 231, 1-methyl-1-(2-(6-(1-methyl-1H-pyrazol-4-yl)pyrazolo[1,5-a]pyridine-3-carbonyl)-2-azaspiro[3.3]heptan-6-yl)-3-(5-(trifluoromethyl)pyridin-3-yl)urea]
DDR1
  Ki: < 5 nM
DDR2
  Ki: 5 to 25 nM

## CCc1ccc(C(F)(F)F)cc1NC(=O)N(C)C1CC2(C1)CN(C(=O)c1cnn3ccn(C)c13)C2 [Example 264, 3-(2-ethyl-5-(trifluoromethyl)phenyl)-1-methyl-1-(2-(1-methyl-1H-imidazo[1,2-b]pyrazole-7-carbonyl)-2-azaspiro[3.3]heptan-6-yl)urea]
DDR1
  Ki: < 5 nM
DDR2
  Ki: 5 to 25 nM

— US20260285855A1, “HETEROARYL DERIVATIVES AS DDRS INHIBITORS” (CHIESI FARMACEUTICI S.P.A., priority 2023, published 2026)
